In ChEMBL document CHEMBL1156829 (Proc Natl Acad Sci U S A, 2008):
Where “and” joins values, the source holds several entries; their conditions need not be identical. Equal values may be shown once.

Legend:
[1] = tested on: Plasmodium falciparum; assay: NOVARTIS: Inhibition of Plasmodium falciparum 3D7 (drug-susceptible) proliferation in erythrocyte-based infection assay; format: functional, organism-based
[2] = tested on: Plasmodium falciparum; assay: NOVARTIS: Inhibition of Plasmodium falciparum W2 (drug-resistant) proliferation in erythrocyte-based infection assay; format: functional, organism-based; settings: read-out: EC50
[3] = tested on: Huh-7; assay: (§1) NOVARTIS: Cytotoxicity against human hepatocellular carcinoma cell line (Huh7); format: toxicity, cell-based
[4] = as §1; format: toxicity, cell-based, Huh-7; settings: Huh7 cells (hepatocellular carcinoma cell line)

SMILES	EC50 [1]	EC50 [2]	CC50 ([3]; huh-7, read-out: CC50)	EC50 ([2]; Plasmodium falciparum, W2)	EC50 ([1]; Plasmodium falciparum, 3D7)	CC50 ([3]; huh-7)	CC50 [4]
CCCCCC[n+]1ccccc1C=Cc1ccc(N(C)C)cc1	0.0961 µM	0.211 µM	2.41 µM	–	–	–	–
CC[n+]1c(/C=C2\Sc3ccccc3N2CCO)ccc2cc(C)ccc21	–	0.142 µM	> 10 µM and 56.3 µM	> 0.248 µM	–	–	–
CCN1/C(=C/C=C/c2sc3ccccc3[n+]2CC)Sc2ccccc21 [ALAZANINE]	–	1.06 µM	27 µM	–	0.2 µM	–	–
CCCCN1C(=Cc2cccc[n+]2C)Sc2cc(NC(C)=O)ccc21	–	> 1.25 µM	> 10 µM	–	> 1.11 µM	–	–
O=C(Nc1ccc(-c2nc3cc(NC(=O)c4cccc([N+](=O)[O-])c4)ccc3[nH]2)cc1)c1cccc([N+](=O)[O-])c1	0.324 µM	0.635 µM and 0.246 µM	1.67 µM and 0.667 µM	–	0.489 µM	–	–
CCN1C(=Cc2sc3ccccc3[n+]2C)C=Cc2ccc(C)cc21	0.121 µM	0.291 µM	11.4 µM	–	–	–	–
OCC[n+]1ccc(/C=C/c2c[nH]c3ccccc23)cc1	0.343 µM	0.396 µM	> 100 µM	0.554 µM	0.39 µM	–	–
Cc1ccc(N=C2NC(=O)/C(=C\c3ccc(N(C)C)cc3)S2)cc1	0.615 µM and 1.47 µM	0.488 µM and 1.25 µM	> 100 µM	–	–	–	–
C[n+]1c(C=CNc2ccccc2)n(-c2ccccc2)c2ccc(Cl)cc21 [listing 1 of 2 here]	0.182 µM	< 0.0145 µM	> 10 µM	–	–	–	–
CC[n+]1c(/C=C2\Sc3oc4ccccc4c3N2C)ccc2cc(C)ccc21	0.0875 µM and 0.253 µM	0.0897 µM	3.59 µM and 13.6 µM	0.0847 µM	–	–	–
Cc1[nH]c2ccccc2c1/C=C/c1cc[n+](C)cc1	0.175 µM	0.215 µM	> 100 µM	–	–	–	–
CC[n+]1c(/C=C2\Sc3ccc(C)cc3N2CCO)ccc2ccccc21	–	–	> 10 µM and 29.4 µM	–	–	–	–
C[n+]1c(C=CNc2ccccc2)n(-c2ccccc2)c2ccc(Cl)cc21 [listing 2 of 2 here]	0.534 µM	0.318 µM	23.8 µM	–	–	–	–
CCN1C(=Cc2sc3ccc(Cl)cc3[n+]2CC)C=Cc2cc(OC)ccc21	0.0167 µM	0.0918 µM	11.9 µM	–	–	–	–
Cc1ccc(N=C2S/C(=C\c3c(Cl)cccc3Cl)C(=O)N2c2ccc(C)c(C)c2)cc1C	–	1.34 µM and 4.81 µM	> 100 µM	–	–	–	–
CC[n+]1c(C=CC=C2N(C)c3ccccc3C2(C)C)sc2ccccc21.[O-][Cl+3]([O-])([O-])[O-]	–	–	1.63 µM	0.177 µM	0.149 µM	–	–
CCN1C=C/C(=C\c2cccc[n+]2C)c2ccccc21	1.03 µM	0.683 µM and 1.96 µM	> 100 µM	–	0.827 µM	–	–
Cc1occc1C(=O)NN=C/C(Br)=C/c1ccccc1	1.37 µM and 0.206 µM	0.502 µM	> 10 µM and 47.1 µM	0.593 µM	–	–	–
COc1ccc(/C=C2\SC(=O)NC2=Nc2ccccc2)cc1	–	1.3 µM and 0.378 µM	> 100 µM	–	0.819 µM	–	–
CCn1c(C=CN(C(C)=O)c2ccccc2)[n+](CC)c2cc(Cl)ccc21	–	–	> 10 µM	> 1.06 µM	> 1.65 µM	–	–
CC[n+]1c(/C=C2\Sc3ccc(OC)cc3N2C)ccc2cc(C)ccc21	–	0.331 µM and 0.052 µM	> 10 µM and 21.8 µM	–	–	–	–
CCN1C(=Cc2sc3cc(NC(C)=O)ccc3[n+]2CC)C=Cc2cc(C)ccc21	0.161 µM	0.581 µM	> 90.6 µM	–	–	–	–
O=C1NC(=Nc2ccccc2)S/C1=C/c1ccc(F)c(Br)c1	> 12.5 µM	1.63 µM and > 0.0942 µM	> 100 µM	–	–	–	–

SMILES	EC50 [1]	EC50 [2]	CC50 ([3]; huh-7, read-out: CC50)	EC50 ([2]; Plasmodium falciparum, W2)	EC50 ([1]; Plasmodium falciparum, 3D7)	CC50 ([3]; huh-7)	CC50 [4]
CC[n+]1c(/C=C2\Sc3cc(C)ccc3N2CCO)ccc2ccccc21	1.2 µM and 0.195 µM	0.861 µM and 0.228 µM	> 10 µM and 21.3 µM	–	–	–	–
Cc1ccc2c(c1)N(C)/C(=C/c1cccc[n+]1C)S2	0.825 µM	–	> 10 µM and 22.7 µM	–	–	–	–
CN(C)c1ccc(C=CC=Cc2cc[n+](C)cc2)cc1	–	–	> 10 µM	0.506 µM	0.64 µM	–	–
O=C1NC(=Nc2ccccc2)/C(=C/c2ccc(O)cc2)S1	0.81 µM	2.16 µM	> 10 µM and 21 µM	> 1.09 µM	> 1.25 µM	–	–
CCN1/C(=C/c2cccc[n+]2C)Sc2ccc(C)cc21	0.487 µM and 1.35 µM	0.545 µM and 2.28 µM	> 100 µM	–	–	–	–
CCN(CC)C1SC=C(c2ccc([N+](=O)[O-])cc2)S1 (stereo unspecified)	0.549 µM	0.911 µM and 0.39 µM	> 96 µM	–	0.446 µM	–	–
CC[n+]1c(C=CN(C)C)sc2ccccc21	0.443 µM	0.462 µM	> 10 µM	–	–	–	–
CCN1/C(=C\C=C\c2n(CC)c3ccc(C#N)cc3[n+]2CC)Oc2ccc(-c3ccccc3)cc21 [listing 1 of 2 here]	0.61 µM	1.06 µM	> 10 µM	–	–	–	–
C[n+]1c2ccccc2nc2ccc(NCCc3cnc[nH]3)cc21	–	–	–	0.405 µM	0.139 µM	No fit	–
CCN1/C(=C\C=C\c2n(CC)c3ccc(C#N)cc3[n+]2CC)Oc2ccc(-c3ccccc3)cc21 [listing 2 of 2 here]	3.85 µM	6.06 µM	> 100 µM	–	–	–	–
CC[n+]1ccccc1C=Cc1ccc(N(C)C)cc1	0.26 µM and 0.35 µM	1.27 µM and 0.271 µM and 0.38 µM	15.2 µM and > 10 µM and > 100 µM	–	0.364 µM	–	–
COc1cc(/C=C2/SC(=Nc3ccccc3)NC2=O)ccc1OCc1ccccc1Cl	0.692 µM	0.522 µM	> 100 µM	0.494 µM	0.957 µM	–	–
Cc1cc(C)cc(-n2c(C)cc(/C=C3\SC(=Nc4ccc(Cl)cc4)NC3=O)c2C)c1	–	0.0811 µM and 0.704 µM	> 100 µM	–	–	–	–
CC[n+]1c(C=CC=C2N(C)c3ccccc3C2(C)C)sc2ccccc21	–	–	> 10 µM	0.52 µM	0.629 µM	–	–
CCN1/C(=C/C=C/c2sc3ccccc3[n+]2CC)Sc2ccccc21	0.258 µM	0.165 µM	9.03 µM	–	–	–	–
C=CCN1C=CC(=Cc2sc3ccccc3[n+]2C)c2ccccc21	0.0897 µM	0.115 µM	14.2 µM	–	–	–	–
CCOc1ccc2nccc([C@@H](O)[C@@H]3C[C@@H]4CCN3C[C@@H]4CC)c2c1 [ETHYLHYDROCUPREINE]	–	0.0257 µM	53.8 µM	–	0.0318 µM	–	–
CCN1/C(=C/c2cccc[n+]2C)C=Cc2ccc(C)cc21	0.225 µM and 0.489 µM	0.448 µM	> 49.9 µM	0.328 µM	–	–	–
CC(C)c1ccc(/C=C2/SC(=Nc3ccccc3)NC2=O)cc1	1 µM and 0.479 µM	1.01 µM	> 100 µM	1.13 µM	–	–	–
CCN1/C(=C/c2cccc[n+]2C)C=Cc2ccccc21	0.401 µM	0.572 µM	> 64.5 µM	0.522 µM	0.667 µM	–	–
Cc1ccc(/C=C2/SC(=Nc3ccccc3)NC2=O)c(C)c1	0.468 µM and 0.232 µM	0.351 µM	> 100 µM	0.455 µM	–	–	–
C=C[C@H]1C[N@]2CC[C@H]1C[C@@H]2[C@@H](OC(=O)Cc1cccs1)c1ccnc2ccccc12	0.0098 µM and 0.0622 µM	0.0787 µM	> 10 µM and 95.1 µM	0.0466 µM	–	–	–
CN(C)c1ccc(C=Cc2cccc[n+]2C)cc1	0.314 µM	–	3.03 µM and > 10 µM	–	0.248 µM	–	–

SMILES	EC50 [1]	EC50 [2]	CC50 ([3]; huh-7, read-out: CC50)	EC50 ([2]; Plasmodium falciparum, W2)	EC50 ([1]; Plasmodium falciparum, 3D7)	CC50 ([3]; huh-7)	CC50 [4]
CN(C)c1ccc(C=CC=Cc2cc[n+](C)cc2)cc1.[O-][Cl+3]([O-])([O-])[O-]	–	–	> 100 µM	0.532 µM	0.77 µM	–	–
CCN1C(=Cc2sc3ccccc3[n+]2CC)[Se]c2ccccc21	0.156 µM	–	5.34 µM and 11.8 µM	–	0.23 µM	–	–
CCOc1ccc(/C=C2/SC(=Nc3ccccc3)NC2=O)cc1OC	0.662 µM and 1.53 µM	–	> 100 µM	–	–	–	–
Cn1cc(/C=C/c2cc[n+](C)cc2)c2ccccc21	0.215 µM	–	7.7 µM	–	–	–	–
Cc1cc(/C=C2\SC(=Nc3ccccc3)NC2=O)c(C)n1-c1ccccc1	–	0.0128 µM and 0.0862 µM	> 99.7 µM	–	–	–	–
C/C(C=C1Sc2ccc3ccoc3c2N1CCO)=C\c1sc2ccc3occc3c2[n+]1CCO	6.89 µM and 1.54 µM	–	> 100 µM	–	–	–	–
CC[n+]1c(/C=C2\Sc3cc(NC(C)=O)ccc3N2C)ccc2ccccc21	0.373 µM and 0.0722 µM	–	> 100 µM	–	–	–	–
CCOCCCNC(=O)C1CCCN(S(=O)(=O)c2ccc(C)cc2)C1 (stereo unspecified)	–	–	–	> 0.73 µM	> 0.659 µM	–	> 10 µM
CCN1CCCC(Nc2ccnc3cc4ccccc4cc23)C1 (stereo unspecified)	–	–	–	0.00481 µM	0.00824 µM	–	3.75 µM
O=C(Nc1ccc(Oc2ccc(OC(F)(F)F)cc2)cc1)C1CC1	–	–	–	2.77 µM	1.67 µM	–	> 100 µM
CC(C)CNc1nc(NCCCN2CCCC2)ncc1C(=O)NCc1ccccc1	–	–	–	> 1.23 µM	0.664 µM	–	> 10 µM
Cn1c(SCCCCNC(=O)c2cc([N+](=O)[O-])cc([N+](=O)[O-])c2)nc(-c2ccccc2)c1-c1ccccc1	–	–	–	0.0337 µM	1.41 µM	–	> 8.57 µM
COc1cccc(C2CC3(CC(C)(C)NC(=S)N3)Oc3cc(OC(C)=O)c(Cl)cc32)c1 (stereo unspecified)	–	–	–	> 0.995 µM	> 1.29 µM	–	> 10 µM
CCCCCCN(C(=O)c1ccc(Cl)cc1)C(CC)c1nc2ccccc2c(=O)n1-c1ccccc1OC (stereo unspecified)	–	–	–	0.607 µM	0.952 µM	–	> 10 µM
CC(C)c1nc(N2CCN(C(=O)Nc3ccccc3)CC2)c(C#N)c2c1COC(C)(C)C2	–	–	–	0.0677 µM	0.0538 µM	–	> 100 µM
CCOc1ccc(-n2c(=S)sc3c(=O)n(-c4ccc(C)cc4)c(SCC(=O)Nc4cc(OC)ccc4OC)nc32)cc1	–	–	–	0.123 µM	0.285 µM	–	> 100 µM
CCCOC(=O)C1=C(C)NC2=C(C(=O)CC(c3ccc(OC)c(OC)c3)C2)C1c1cccc(Br)c1 (stereo unspecified)	–	–	–	0.0744 µM	0.322 µM	–	21.6 µM
COC(=O)c1ccc(C=NNc2cc(C)nc3ccc(OC)cc23)cc1	–	–	–	0.537 µM	0.204 µM	–	16.5 µM
CCC(SC1=Nc2ccccc2C2=NC(C(C)C)C(=O)N12)C(=O)Nc1cccc(C)c1 (stereo unspecified)	–	–	–	2.4 µM	7.02 µM	–	> 100 µM
O=c1c2ccccc2[nH]c2ccc(F)cc12	–	–	–	0.208 µM	0.186 µM	–	> 100 µM
CCC(Oc1ccc(C(C)(C)CC)cc1C(C)(C)CC)C(=O)Nc1ccc([N+](=O)[O-])cc1O (stereo unspecified)	–	–	–	0.348 µM	> 5.26 µM	–	> 100 µM
Nc1cc(C(=O)Nc2ccc(C3=NCCN3)cc2)ccc1C(=O)Nc1ccc(C2=NCCN2)cc1	–	–	–	0.179 µM	0.29 µM	–	90.6 µM
